Experimental data as given in a melting point compilation (Tetko et al.; mined from patent text by program, amines drawn as free bases though some values may be those of a salt).

Structure (SMILES)	melting point [°C]
COc1ccc2cc([C@@H]3CCN(C[C@H](O)COc4cccc5[nH]ccc45)[C@@H](C)C3)sc2c1	179 to 182
C(#CCN(c1ccccc1)c1ccccc1)CN(c1ccccc1)c1ccccc1	84 to 86
c1ccc(CNc2c(-c3ccccc3)sc3ccccc23)cc1	52 to 53
C[C@@H](N1CCN(c2nnn(Cc3ccc(C(F)(F)F)cc3)n2)CC1)[C@](O)(Cn1cncn1)c1ccc(F)cc1F	71 to 72
CC(=O)NC(C)(C)c1ccc(CN2CCN(c3ccccn3)CC2)cc1	129 to 130
COC(=O)c1ccc(CC(C)N(CC(=O)c2ccc(OCc3ccccc3)c(NC(N)=O)c2)Cc2ccccc2)cc1 (configuration not stated)	140 to 145
O=C(O)C1=Cc2ccc(C(F)(F)F)cc2OC1C(F)(F)F (configuration not stated)	190 to 194
CO/N=C(\C(=O)N[C@@H]1C(=O)N[C@@H]1COC(=O)/C(=N\OC)c1csc(NC(=O)CCl)n1)c1csc(NC(=O)CCl)n1 (relative stereo)	157 to 159
O=C(O)CCC1c2ccccc2-c2ccccc21	216 to 217
CC1CCCN1CCN1CCN(CCCN2CCCCC2)C1=C(C#N)C#N (configuration not stated)	84 to 86
O=C(Nc1ccc(CCCc2nnn[nH]2)cc1)C(F)(F)C(F)(F)C(F)(F)C(F)(F)C(F)(F)C(F)(F)C(F)(F)F	170 to 172
O=C1CCC(c2ccccc2)N1c1ccccc1 (configuration not stated)	106 to 108
COc1cc2c3c(n(Cc4ccccc4)c(=O)c2cc1OC)-c1cc2c(cc1C3=O)OCO2	310 to 312
Cc1cncc(C)c1-c1c(C)cc(OS(=O)(=O)C(F)(F)F)cc1C	68 to 69
CCOC(=O)COc1cccc(-c2nc3ncccc3[nH]2)c1	158
CN1CC2CC1CN2c1cncc(Cl)n1 (configuration not stated)	125 to 126
O=C1NCC(CCc2ccccc2F)O1 (configuration not stated)	73 to 74
CCCCn1c(=S)c2c(ncn2CC(C)=O)n(CC)c1=O	173 to 174
COC(=O)c1cc(I)cc2c(=O)cc[nH]c12	75 to 77

Structure (SMILES)	melting point [°C]
CC1(C)COP(=O)(Cc2ccc([N+](=O)[O-])cc2)OC1	176 to 177
COc1cccc([C@H]2O[C@H](CC(=O)Nc3ccc4oc(CCC(=O)O)cc4c3)C(=O)N(CC(C)(C)CO)c3ccc(Cl)cc32)c1OC	207 to 209
Cc1c2n(c3ccccc13)C(=O)C(C(O)c1cccnc1)CC2 (configuration not stated)	83 to 86
CCOC(=O)c1ccc(OCCC2CCN(c3ccc(C)nn3)CC2)cc1	130
O=C1NC(=O)c2ccc(Br)cc2/C1=C/Nc1ccc(CN2CCCC2)cc1	165 to 166
CC(=O)N(C(C)=O)c1cc2c(Nc3ccc(Sc4nccn4C)c(Cl)c3)c(C#N)cnc2cc1N1CCC(N2CCCC2)CC1	245 to 247
COC(=O)c1cccc(Cn2c(C(=O)Nc3nc(-c4cc(OC)c(C)cc4OC)c(CCC4CCCCC4)s3)cc3cc(C)cc(C)c32)c1	219 to 220
COc1ccc(C2(C#N)CCC(=O)CC2)c2c1oc1ccccc12	199 to 202
CC1(C)C2CC[C@]1(C)C(=O)C(C(=O)Nc1ccc(F)c(Cl)c1)C2=O (some centres not stated)	87 to 89
COc1cccc2c(Nc3ccc(C(=O)NC4CCN(Cc5ccccc5)CC4)cc3)c(C(=O)NC3CCN(CCc4ccccc4)CC3)cnc12	216 to 220
CCCCCCCCCCCCCCCCCCN1CC(O)C1	75.5 to 78
CNCCc1c(C)[nH]c2ccc(S(=O)(=O)c3ccccc3)cc12	165 to 166
COc1cc(OC)c(-c2nc3ncccc3[nH]2)s1	93 to 96
COc1cc(OC)n2nc(NS(=O)(=O)c3c(Cl)cccc3Cl)nc2n1	211 to 213
C=CCOc1ccccc1NS(C)(=O)=O	90
CCCCCCCCC(SCCCCCC)C(=O)Nc1c(SC)cc(SC)c2ncccc12 (configuration not stated)	91 to 93
CCNC(=O)NNC=NC(=O)c1nc(Cl)c(NC(C)C)nc1N	148 to 150
COc1ccc2sc(Cc3ccc(Cl)cc3)nc2c1	83 to 85
